# Structures can show the parent of a compound that is named as a salt. Numbered stars: 1 amine (or outer) side, 2 acyl side, 3 side chain; on linkers, the order of the positions; unused ones are H or OH. Square brackets hold non-standard residues; d marks the D form. Peptide text beside a SMILES is read from it. Ahppa(3S,4S) = O=C(C[C@H](O)[C@H](Cc1ccccc1)N[*:1])[*:2]; ACHPA = O=C(C[C@H](O)[C@H](CC1CCCCC1)N[*:1])[*:2]; Tic = O=C(O)[C@@H]1Cc2ccccc2CN1
# Molecular target: T1, HIV protease (Human immunodeficiency virus type 1 group M subtype B, UniProt P04585)
# T1 construct: HIV protease was expressed in E. coli and purified to ca. 50% purity; made in house; host or cells: E. coli
# Experiment: Recombinant HIV Protease HPLC Assay
# Type: biochemical
# Conditions: recombinant HIV protease expressed in E. coli; substrate VSFNFPQITL-NH2; pH 6 buffer; 37° C. for 1 h; HPLC quantification
# From the text: The procedure is based on the capacity of the test compound to inhibit enzymatic cleavage by HIV protease of a decapeptide (the substrate) having an amino acid sequence which includes a known HIV protease cleavage site of the HIV polyprotein; see H. G. Krausslich et al., Proc. Natl. Acad. Sci. USA, 86, 807 (1989). Details of this assay together with the results obtained for exemplified peptides of formula 1 are described in the examples hereinafter.
# Recombinant HIV Protease HPLC Assay
# Enzyme: HIV protease was expressed in E. coli and purified to ca. 50% purity according to the procedure described by H.-G. Krausslich et al., Proc. Natl. Acad. Sci. U.S.A., 86, 807 (1989). The enzyme was stored as 10 μL aliquots at -70° C. The aliquots were diluted to 1/10th of the original concentration with buffer prior to use (enzyme working solution).
# Substrate: VSFNFPQITL-NH2, MW 1164, see Krausslich et al., supra, was used as substrate. The substrate was made into 10 mM stock in DMSO and stored at -20° C. Prior to use, the stock was diluted with buffer to give a 400 μM solution substrate working solution.
# Buffer: 2-(4-Morpholino)ethanesulfonic acid (50 mM), NaCl (25 mM) and EDTA (5 mM) was dissolved in distilled H2 O (90 mL) and the solution was adjusted to pH6 with concentrated aqueous NaOH. The latter solution was diluted to 100 mL with H2 O to give the buffer.
# Procedure: (1) The test compound was dissolved in DMSO to give a solution having 40× the final concentration of the test compound in the assay mixture (see step 2) so that the amount of DMSO in the assay mixture was 5% (v,v) or less. (2) The assay mixture was prepared by mixing 10 μL of the substrate working solution, 0.5 μL of the solution of the test compound in DMSO from step 1, and 10 μL of the enzyme working solution. (3) The assay mixture was incubated at 37° C. for 1h. (4) The reaction was quenched by adding 100 μL of 2% aqueous TFA. (5) The substrate and products (i.e. VSFNF and PQITL-NH2) were separated by subjecting 100 μL of the quenched assay mixture to HPLC using Nucleosil ® C18 column with a 26-min linear gradient at 1 mL/min from 11% to 70% acetonitrile in H2 O with 0.05% aqueous TFA. Elution was monitored at 210 nm. (6) A control which was the assay mixture without the test compound, was subjected simultaneously to steps 3 to 5.
# Inhibition Studies: Cleavage products and remaining parent substrate were quantified by either peak height or by integration of the appropriate HPLC peaks. Substrate conversion was calculated using the following relationship: [formula] Enzyme inhibition of the test compound was calculated as follows: [formula]
# The concentration of the test compound which causes a 50% inhibition of the HIV-protease, i.e. the IC50, was determined as follows: The percent inhibition of the enzyme was determined for a minimum of three different concentrations of the test compound. Thereafter, the IC50 was determined graphically by plotting the percent inhibition of the substrate against the concentration of the test compound.
row,Compound,IC50 [nM]
1,THIQ-Val-Cha.psi.[CH2 NH]Leu-Leu-Phe-NH2.HCl [Example 20],80
2,THIQ-Val-ACHPA-Ala-Phe-NH2.HCl [Example 7],17
3,"CC(C)C[C@H](NC(=O)C[C@H](O)[C@H](Cc1ccccc1)NC(=O)[C@@H](NC(=O)[C@@H]1Cc2ccccc2CN1)C(C)C)C(=O)N[C@@H](Cc1ccccc1)C(N)=O [Example 16, THIQ-Val-AHPPA-Leu-Phe-NH2.HCl] (H-[Tic]V[Ahppa(3S,4S)]LF-NH2)",25
4,"CC(C)C[C@H](NC(=O)C[C@H](O)[C@H](CC1CCCCC1)NC(=O)[C@H](C)NC(=O)[C@@H]1Cc2ccccc2CN1)C(=O)N[C@@H](Cc1ccccc1)C(=O)O [Example 14, THIQ-Ala-ACHPA-Leu-Phe-OH.HCl] (H-[Tic]A[ACHPA]LF-OH)",200
5,"N-[N-[N-[N-[3-(1,2,3,4-Tetrahydroisoquinolyl)carbonyl]-L-alanyl]-4(S)-amino-3(S)-hydroxy-5-cyclohexylpentanoyl]-L-leucyl]-L-phenylalaninamide Hydrochloride [Example 1]",90
